These results are taken from US11091478B2 (Fochon Pharmaceuticals, Ltd., priority 2017, dated 2021).

One assay concerns DOHH2 cells. Briefly: Cell proliferation assay (MTS), DOHH2 cells, 120 h. To be noted: Homo sapiens, DOHH-2, 120 h. In kind it is cell-based. A digest of the protocol: (§1)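 Proliferation was scored by MTS (2 h, then SDS stop, A490 with 650 nm reference) and IC50 derived. Compound ran at nine final concentrations from 1.5 to 10000 nM. DOHH2 were incubated 120 h and RS4;11 72 h, both plated at 5000 cells/well in RPMI-1640 plus 10% FBS.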

In another assay the test system is RS4;11 cells. Briefly: Cell proliferation assay (MTS), RS4;11 cells, 72 h. In kind it is cell-based. To be noted: Homo sapiens, RS4-11, 72 h. Summed up: as §1

As to `CC1(C)CCC(CN2CCN(c3ccc(C(=O)NS(=O)(=O)c4cc5c(c([N+](=O)[O-])c4)N[C@@H](CC4CCOCC4)CO5)c(Oc4cnc5[nH]ccc5c4)c3)CC2)=C(c2ccc(Cl)cc2)C1` [Example 2-182, (S)-2-((1H-pyrrolo[2,3-b]pyridin-5-yl)oxy)-4-(4-((4′-chloro-5,5-dimethyl-3,4,5,6-tetra-hydro-[1,1′-biphenyl]-2-yl)methyl)piperazin-1-yl)-N-((5-nitro-3-((tetrahydro-2H-pyran-4-yl)methyl)-3,4-dihydro-2H-benzo[b] [1,4]oxazin-7-yl)sulfonyl)benzamide], the IC50 (commonly the concentration needed to halve the response being measured) was 16 nM in the assay on DOHH2 cells and 3 nM in the assay with RS4;11 cells.

For `CC1(C)CCC(CN2CCN(c3ccc(C(=O)NS(=O)(=O)c4cc5c(c([N+](=O)[O-])c4)N[C@H](Cc4ccccn4)CO5)c(Oc4cnc5[nH]ccc5c4)c3)CC2)=C(c2ccc(Cl)cc2)C1` [Example 2-199, (R)-2-((1H-pyrrolo[2,3-b]pyridin-5-yl)oxy)-4-(4-((4′-chloro-5,5-dimethyl-3,4,5,6-tetra-hydro-[1,1′-biphenyl]-2-yl)methyl)piperazin-1-yl)-N-((5-nitro-3-(pyridin-2-ylmethyl)-3,4-dihydro-2H-benzo[b][1,4]oxazin-7-yl)sulfonyl)benzamide], the IC50 is 55 nM in the assay on DOHH2 cells and 18 nM in the assay with RS4;11 cells.

As for `CC1(C)CCC(c2ccc(Cl)cc2)=C(CN2CCN(c3ccc(C(=O)NS(=O)(=O)c4cc5c(c([N+](=O)[O-])c4)N[C@@H](CC4CCOCC4)CO5)c(Oc4cnc5[nH]ccc5c4)c3)CC2)C1` [Example 2-235, (S)-2-((1H-pyrrolo[2,3-b]pyridin-5-yl)oxy)-4-(4-((4′-chloro-4,4-dimethyl-3,4,5,6-tetra-hydro-[1,1′-biphenyl]-2-yl)methyl)piperazin-1-yl)-N-((5-nitro-3-((tetrahydro-2H-pyran-4-yl)methyl)-3,4-dihdyro-2H-benzo[b] [1,4]oxazin-7-yl)sulfonyl)benzamide], the IC50 in the assay with DOHH2 cells turned out to be 23 nM; with RS4;11 cells, 10 nM.

With `CC1(C)CCC(CN2CCN(c3ccc(C(=O)NS(=O)(=O)c4cc5c(c([N+](=O)[O-])c4)N[C@@H](CCN4CCS(=O)(=O)CC4)CO5)c(Oc4cnc5[nH]ccc5c4)c3)CC2)=C(c2ccc(Cl)cc2)C1` [Example 2-153, (S)-2-((1H-pyrrolo[2,3-b]pyridin-5-yl)oxy)-4-(4-((4′-chloro-5,5-dimethyl-3,4,5,6-tetra-hydro-[1,1′-biphenyl]-2-yl)methyl)piperazin-1-yl)-N-((3-(2-(1,1-dioxidothiomorpholino)ethyl)-5-nitro-3,4-dihydro-2H-benzo[b] [1,4]oxazin-7-yl)sulfonyl)benzamide], the IC50 came out at 8 nM in the assay with DOHH2 cells and 1 nM with RS4;11 cells.

As for `CC1(C)CCC(CN2CCN(c3ccc(C(=O)NS(=O)(=O)c4cc5c(c([N+](=O)[O-])c4)N[C@@H](CN=S(C)(C)=O)CO5)c(Oc4cnc5[nH]ccc5c4)c3)CC2)=C(c2ccc(Cl)cc2)C1` [Example 2-75, (S)-2-((1H-pyrrolo[2,3-b]pyridin-5-yl)oxy)-4-(4-((4′-chloro-5,5-dimethyl-3,4,5,6-tetra-hydro-[1,1′-biphenyl]-2-yl)methyl)piperazin-1-yl)-N-((3-(((dimethyl(oxo)-λ^6-sulfanyl-idene)amino)methyl)-5-nitro-3,4-dihydro-2H-benzo[b][1,4]oxazin-7-yl)sulfonyl)benza-mide], the 50% inhibitory concentration (IC50) with DOHH2 cells came to 64 nM; with RS4;11 cells, 1 nM.
